Where two headings read alike, the source gives them in different places.
Target: T1, Axl (Homo sapiens, UniProt P30530)
T1 construct: endogenous in cells; host or cells: HeLa cells
T1 sequence (P30530 26-894): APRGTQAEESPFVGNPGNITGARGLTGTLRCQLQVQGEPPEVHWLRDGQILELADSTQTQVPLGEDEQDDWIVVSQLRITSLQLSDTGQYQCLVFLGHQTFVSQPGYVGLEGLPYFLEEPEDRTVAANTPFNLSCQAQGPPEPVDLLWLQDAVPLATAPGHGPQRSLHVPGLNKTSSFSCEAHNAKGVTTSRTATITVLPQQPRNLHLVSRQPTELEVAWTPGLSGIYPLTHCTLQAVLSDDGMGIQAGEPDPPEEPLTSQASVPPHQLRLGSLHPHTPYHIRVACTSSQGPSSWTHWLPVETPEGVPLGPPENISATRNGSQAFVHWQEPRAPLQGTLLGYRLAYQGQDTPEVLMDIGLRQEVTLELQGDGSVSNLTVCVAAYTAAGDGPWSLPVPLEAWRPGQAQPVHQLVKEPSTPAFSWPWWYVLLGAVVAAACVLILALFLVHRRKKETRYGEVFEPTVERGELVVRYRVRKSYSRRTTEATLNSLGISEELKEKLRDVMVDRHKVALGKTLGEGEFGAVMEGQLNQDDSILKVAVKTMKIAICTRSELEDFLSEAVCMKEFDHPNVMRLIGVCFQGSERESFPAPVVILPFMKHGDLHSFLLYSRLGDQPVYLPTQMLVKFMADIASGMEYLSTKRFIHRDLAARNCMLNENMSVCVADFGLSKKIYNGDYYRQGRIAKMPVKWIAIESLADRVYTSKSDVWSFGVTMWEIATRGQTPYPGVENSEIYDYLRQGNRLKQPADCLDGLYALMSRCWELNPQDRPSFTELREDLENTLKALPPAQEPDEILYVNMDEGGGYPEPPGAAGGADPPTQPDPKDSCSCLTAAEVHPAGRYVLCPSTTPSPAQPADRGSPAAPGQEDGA
Assay: Phospho-Akt In-Cell Western Assay (inhibition of Axl activity after Axl-antibody cross-linking)
Assay type: cell-based
Conditions: read-out: IC50
Summary of the method: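 Phospho-Akt was detected in formaldehyde-fixed cells by in-cell immunostaining with HRP chemiluminescence. Before fixation, HeLa cells kept 24 h in low-serum medium containing 500 ng/mL Axl/Fc received compound for 1 h at 37 °C, followed by 5-min Axl activation through antibody clustering.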

[1] = inhibition of Axl activity, Table 1, compounds of formula (Ia)
[2] = Hela cells, phospho-Akt chemiluminescence normalized to relative cell number, compounds of formula (Ib), Table 2

| IC50 [1] [µM] | IC50 [2] [µM] | Structure (SMILES) |
| --- | --- | --- |
| < 1 |  | Cc1csc2c(-n3nc(Nc4cnc5c(c4)CCC4(CCC5)OCC(C)(C)CO4)nc3N)nc(Cl)nc12 [Compound 246, 1-(2-chloro-7-methylthieno[3,2-d]pyrimidin-4-yl)-N^3-(5′,5′-dimethyl-6,8,9,10-tetrahydro-5H-spiro[cycloocta[b]pyridine-7,2′-[1,3]dioxane]-3-yl)-1H-1,2,4-triazole-3,5-diamine] |
| > 20 |  | CC1(C)COC2(CCCc3ncc(Nc4nc(N)n(-c5cc6c(nn5)-c5ccccc5CCC6)n4)cc3CC2)OC1 [Compound 247, 1-(6,7-dihydro-5H-benzo[6,7]cyclohepta[1,2-c]pyridazin-3-yl)-N^3-(5′,5′-dimethyl-6,8,9,10-tetrahydro-5H-spiro[cycloocta[b]pyridine-7,2′-[1,3]dioxane]-3-yl)-1H-1,2,4-triazole-3,5-diamine] |
|  | > 20 | Nc1nc(Nc2cnc3c(c2)CC2(CCC3)OCCO2)n(-c2cc3c(nn2)-c2ccccc2CCC3)n1 [Compound 248, 1-(6,7-dihydro-5H-benzo[6,7]cyclohepta[1,2-c]pyridazin-3-yl)-N^5-(5,7,8,9-tetrahydrospiro[cyclohepta[b]pyridine-6,2′[1,3]dioxolane]-3-yl)-1H-1,2,4-triazole-3,5-diamine] |
|  | < 1 | Nc1nc(Nc2ccc3c(c2)CC[C@@H](N2CCCC2)CC3)n(-c2cc3c(nn2)-c2ccccc2CCC3)n1 [Compound 249, 1-(6,7-dihydro-5H-benzo[6,7]cyclohepta[1,2-c]pyridazin-3-yl)-N^5-(7-(S)-pyrrolidin-1-yl-6,7,8,9-tetrahydro-5H-benzo[7]annulene-2-yl)-1H-1,2,4-triazole-3,5-diamine] |

Source: patent US7709482B2, “Polycyclic heteroaryl substituted triazoles useful as Axl inhibitors” (Rigel Pharmaceuticals, Inc., priority 2006, dated 2010)
